From article PMC12193096 (International Journal of Molecular Sciences, 2025)

Legend:
[1] = target: T1, FGR (Homo sapiens, UniProt P09769); assay: live-cell confocal co-localization (HaloTag recruitment to endosome/F-actin) in HeLa cells; type: cell-based
T1 construct: EGFP-fusion of wild-type FGR

[2] = target: T2, YES1 (Homo sapiens, UniProt P07947); assay: as above; type: cell-based
T2 construct: EGFP-fusion of wild-type YES1

[3] = target: T3, BTK (Homo sapiens, UniProt Q06187); assay: as above; type: cell-based
T3 construct: EGFP-fusion of wild-type BTK
T3 sequence (Q06187 whole entry, the tested form may be a part): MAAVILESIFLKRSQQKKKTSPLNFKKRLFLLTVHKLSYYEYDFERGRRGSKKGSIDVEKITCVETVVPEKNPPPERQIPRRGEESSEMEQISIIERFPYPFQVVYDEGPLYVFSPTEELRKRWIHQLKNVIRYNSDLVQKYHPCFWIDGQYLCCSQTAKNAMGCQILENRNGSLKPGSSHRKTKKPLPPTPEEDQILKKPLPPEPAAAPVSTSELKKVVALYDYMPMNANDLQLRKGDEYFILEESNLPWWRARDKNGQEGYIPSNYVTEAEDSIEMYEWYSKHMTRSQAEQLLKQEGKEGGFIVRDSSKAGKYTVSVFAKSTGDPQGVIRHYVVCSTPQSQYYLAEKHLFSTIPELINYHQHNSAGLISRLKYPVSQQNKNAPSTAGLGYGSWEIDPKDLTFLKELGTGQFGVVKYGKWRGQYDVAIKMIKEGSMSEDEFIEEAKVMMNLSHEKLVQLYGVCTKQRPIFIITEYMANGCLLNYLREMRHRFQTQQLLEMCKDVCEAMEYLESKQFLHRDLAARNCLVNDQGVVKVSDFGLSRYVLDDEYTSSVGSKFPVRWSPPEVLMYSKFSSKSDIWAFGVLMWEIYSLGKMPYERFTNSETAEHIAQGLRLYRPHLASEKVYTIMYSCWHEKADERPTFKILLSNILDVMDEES

[4] = target: T4, SRC (Homo sapiens, UniProt P12931); assay: Western blot of pY416 autophosphorylation of EGFP-SRC in HeLa cells; live-cell co-localization imaging; type: cell-based
T4 construct: full-length SRC (EGFP-SRC)
T4 sequence (P12931 2-536): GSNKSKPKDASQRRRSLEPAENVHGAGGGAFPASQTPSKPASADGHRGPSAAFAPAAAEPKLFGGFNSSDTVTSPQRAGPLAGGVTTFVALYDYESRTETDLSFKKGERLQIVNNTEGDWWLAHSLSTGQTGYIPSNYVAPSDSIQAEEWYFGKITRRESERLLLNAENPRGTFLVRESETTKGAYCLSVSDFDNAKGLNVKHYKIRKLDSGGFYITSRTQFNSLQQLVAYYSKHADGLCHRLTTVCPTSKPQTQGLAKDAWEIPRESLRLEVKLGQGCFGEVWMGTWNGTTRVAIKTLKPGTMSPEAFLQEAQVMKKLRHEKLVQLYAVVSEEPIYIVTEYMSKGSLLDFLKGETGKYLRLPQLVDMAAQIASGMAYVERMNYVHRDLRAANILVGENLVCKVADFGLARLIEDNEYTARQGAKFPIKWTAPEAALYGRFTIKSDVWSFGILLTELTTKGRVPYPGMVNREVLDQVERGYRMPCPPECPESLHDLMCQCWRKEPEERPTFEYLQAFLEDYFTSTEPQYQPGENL

[5] = target: T5, ABL1 (Homo sapiens, UniProt P00519); assay: Kinase-Glo Plus luminescence kinase assay; also live-cell co-localization competed by excess dasatinib; type: biochemical
T5 construct: recombinant active kinase ABL1
T5 sequence (P00519 whole entry): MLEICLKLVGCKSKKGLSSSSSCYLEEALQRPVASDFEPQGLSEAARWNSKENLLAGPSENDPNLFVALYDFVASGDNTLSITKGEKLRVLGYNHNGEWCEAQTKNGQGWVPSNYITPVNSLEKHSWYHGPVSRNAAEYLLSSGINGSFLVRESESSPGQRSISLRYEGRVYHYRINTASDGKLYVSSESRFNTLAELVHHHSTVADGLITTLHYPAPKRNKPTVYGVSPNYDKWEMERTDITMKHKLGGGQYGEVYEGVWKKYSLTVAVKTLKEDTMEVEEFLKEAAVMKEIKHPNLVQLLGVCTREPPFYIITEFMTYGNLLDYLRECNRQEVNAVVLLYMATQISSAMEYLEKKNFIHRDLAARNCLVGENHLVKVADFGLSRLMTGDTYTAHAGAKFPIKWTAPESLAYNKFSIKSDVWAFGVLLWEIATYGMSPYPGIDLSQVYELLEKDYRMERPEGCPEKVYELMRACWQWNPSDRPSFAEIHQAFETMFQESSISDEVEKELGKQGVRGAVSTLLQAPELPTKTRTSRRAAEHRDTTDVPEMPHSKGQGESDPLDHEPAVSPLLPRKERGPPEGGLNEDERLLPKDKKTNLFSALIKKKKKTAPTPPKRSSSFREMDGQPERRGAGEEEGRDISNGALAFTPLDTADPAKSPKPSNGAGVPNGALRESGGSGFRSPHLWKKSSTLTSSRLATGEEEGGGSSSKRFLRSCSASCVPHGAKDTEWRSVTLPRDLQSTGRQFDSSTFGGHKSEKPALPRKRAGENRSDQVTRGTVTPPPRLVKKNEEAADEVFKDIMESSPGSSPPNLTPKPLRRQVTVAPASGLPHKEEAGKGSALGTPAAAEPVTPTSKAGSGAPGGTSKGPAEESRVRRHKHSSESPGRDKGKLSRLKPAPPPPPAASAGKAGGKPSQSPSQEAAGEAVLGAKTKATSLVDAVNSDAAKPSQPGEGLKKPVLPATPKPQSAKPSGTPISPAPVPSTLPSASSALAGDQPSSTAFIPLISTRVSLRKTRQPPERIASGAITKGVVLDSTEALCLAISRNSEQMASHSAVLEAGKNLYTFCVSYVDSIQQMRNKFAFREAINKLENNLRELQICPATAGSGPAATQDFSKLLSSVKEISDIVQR

[6] = target: T6, CSK (Homo sapiens, UniProt P41240); assay: live-cell confocal co-localization (HaloTag recruitment to endosome/F-actin) in HeLa cells; type: cell-based
T6 construct: EGFP-fusion of wild-type CSK
T6 sequence (P41240 whole entry, the tested form may be a part): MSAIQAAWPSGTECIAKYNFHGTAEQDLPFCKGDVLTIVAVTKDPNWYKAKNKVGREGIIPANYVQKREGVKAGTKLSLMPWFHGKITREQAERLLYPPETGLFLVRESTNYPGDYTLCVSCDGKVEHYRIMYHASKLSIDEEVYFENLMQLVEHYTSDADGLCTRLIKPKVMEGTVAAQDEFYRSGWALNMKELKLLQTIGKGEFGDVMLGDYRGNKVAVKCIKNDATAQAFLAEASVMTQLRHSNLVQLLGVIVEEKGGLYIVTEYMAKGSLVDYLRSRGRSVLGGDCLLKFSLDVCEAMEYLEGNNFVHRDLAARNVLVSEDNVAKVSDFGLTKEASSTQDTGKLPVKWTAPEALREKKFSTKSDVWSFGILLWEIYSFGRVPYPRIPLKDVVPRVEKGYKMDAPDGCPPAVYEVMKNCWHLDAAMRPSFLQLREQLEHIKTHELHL
Text: live-cell confocal co-localization (HaloTag recruitment to endosome/F-actin) in HeLa cells on CSK | […]

[7] = target: T7, HCK (Homo sapiens, UniProt P08631); assay: as above; type: cell-based
T7 construct: EGFP-fusion of wild-type HCK
T7 sequence (P08631 2-526): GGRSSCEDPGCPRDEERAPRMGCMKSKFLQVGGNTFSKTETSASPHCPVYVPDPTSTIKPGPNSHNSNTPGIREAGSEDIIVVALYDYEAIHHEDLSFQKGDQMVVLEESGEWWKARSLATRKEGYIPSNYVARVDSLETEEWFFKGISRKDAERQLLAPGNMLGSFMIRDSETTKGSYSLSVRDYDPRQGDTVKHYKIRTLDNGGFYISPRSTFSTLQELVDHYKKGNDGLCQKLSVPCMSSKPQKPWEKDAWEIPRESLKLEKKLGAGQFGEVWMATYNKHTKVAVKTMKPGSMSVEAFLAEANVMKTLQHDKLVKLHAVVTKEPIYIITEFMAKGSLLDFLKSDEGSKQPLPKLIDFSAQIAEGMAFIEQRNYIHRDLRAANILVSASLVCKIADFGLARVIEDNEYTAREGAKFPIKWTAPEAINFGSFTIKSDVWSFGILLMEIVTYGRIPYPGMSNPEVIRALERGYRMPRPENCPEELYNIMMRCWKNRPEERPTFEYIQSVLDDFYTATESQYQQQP

[8] = target: T8, LYN (Homo sapiens, UniProt P07948); assay: as above; type: cell-based
T8 construct: EGFP-fusion of wild-type LYN
T8 sequence (P07948 2-491 isoform P07948-2): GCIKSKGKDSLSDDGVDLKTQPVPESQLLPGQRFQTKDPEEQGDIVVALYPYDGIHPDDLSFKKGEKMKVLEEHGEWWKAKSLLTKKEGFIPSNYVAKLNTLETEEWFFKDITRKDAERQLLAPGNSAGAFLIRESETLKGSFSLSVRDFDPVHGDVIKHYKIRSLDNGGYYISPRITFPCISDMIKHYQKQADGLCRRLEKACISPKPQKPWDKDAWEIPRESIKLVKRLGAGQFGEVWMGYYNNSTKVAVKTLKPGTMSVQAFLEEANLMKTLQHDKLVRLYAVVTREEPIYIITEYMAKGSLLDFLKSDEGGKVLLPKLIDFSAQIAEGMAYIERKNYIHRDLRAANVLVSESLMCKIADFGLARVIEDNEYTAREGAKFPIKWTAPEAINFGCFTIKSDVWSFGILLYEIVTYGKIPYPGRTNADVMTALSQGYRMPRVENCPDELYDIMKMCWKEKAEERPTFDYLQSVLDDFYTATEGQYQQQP

T2 sequence (P07947 2-543): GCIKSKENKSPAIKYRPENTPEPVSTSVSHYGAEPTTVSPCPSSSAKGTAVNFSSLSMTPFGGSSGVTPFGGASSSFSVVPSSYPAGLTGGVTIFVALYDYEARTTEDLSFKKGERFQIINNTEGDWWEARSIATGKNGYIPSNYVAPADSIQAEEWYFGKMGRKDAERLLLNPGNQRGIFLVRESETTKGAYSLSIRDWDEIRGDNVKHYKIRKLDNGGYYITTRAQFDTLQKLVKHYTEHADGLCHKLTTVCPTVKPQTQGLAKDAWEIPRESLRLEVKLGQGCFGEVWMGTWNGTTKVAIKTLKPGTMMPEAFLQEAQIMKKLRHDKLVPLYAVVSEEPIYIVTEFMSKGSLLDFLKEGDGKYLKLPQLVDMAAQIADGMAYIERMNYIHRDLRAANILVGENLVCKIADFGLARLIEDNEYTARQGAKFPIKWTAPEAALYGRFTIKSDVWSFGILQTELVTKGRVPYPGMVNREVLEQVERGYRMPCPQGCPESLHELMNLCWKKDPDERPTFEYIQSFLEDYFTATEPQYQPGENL
T1 sequence (P09769 2-529): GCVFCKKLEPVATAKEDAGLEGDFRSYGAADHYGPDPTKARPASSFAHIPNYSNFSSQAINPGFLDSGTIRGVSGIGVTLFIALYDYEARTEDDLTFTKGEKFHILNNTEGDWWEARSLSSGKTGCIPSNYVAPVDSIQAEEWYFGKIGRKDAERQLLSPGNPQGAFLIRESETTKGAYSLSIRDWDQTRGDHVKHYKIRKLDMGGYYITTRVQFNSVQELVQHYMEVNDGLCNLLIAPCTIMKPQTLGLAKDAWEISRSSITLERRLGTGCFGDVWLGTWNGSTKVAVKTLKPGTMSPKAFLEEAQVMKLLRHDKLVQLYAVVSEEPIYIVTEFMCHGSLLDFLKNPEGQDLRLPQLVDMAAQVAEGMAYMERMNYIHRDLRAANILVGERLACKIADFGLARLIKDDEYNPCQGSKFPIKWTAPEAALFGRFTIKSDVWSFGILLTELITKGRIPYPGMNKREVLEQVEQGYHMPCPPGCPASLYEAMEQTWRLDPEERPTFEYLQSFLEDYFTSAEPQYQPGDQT

Cc1nc(Nc2ncc(C(=O)Nc3c(C)cccc3Cl)s2)cc(N2CCN(CCNC(=O)CCC(=O)NCCOCCOCCCCCCCl)CC2)n1 [dasatinib−HT ligand]
live-cell confocal co-localization (HaloTag recruitment to endosome/F-actin) in [1]: the GFP-fusion kinase co-localized with the intracellular compartments | live-cell confocal co-localization (HaloTag recruitment to endosome/F-actin) in [2]: the GFP-fusion kinase co-localized with the intracellular compartments | live-cell confocal co-localization (HaloTag recruitment to endosome/F-actin) in [3]: the GFP-fusion kinase co-localized with the intracellular compartments | Western blot of pY416 autophosphorylation of EGFP-SRC in HeLa cells; live-cell c [4]: the levels of active, phosphorylated SRC significantly decreased compared with those in vehicle-treated HeLa cells | IC50 [5]: 153 nM | live-cell confocal co-localization (HaloTag recruitment to endosome/F-actin) in [6]: clearly showed binding events between dasatinib and its target kinases (ABL1, SRC, CSK, etc.) at specific subcellular structures | live-cell confocal co-localization (HaloTag recruitment to endosome/F-actin) in [7]: the GFP-fusion kinase co-localized with the intracellular compartments | live-cell confocal co-localization (HaloTag recruitment to endosome/F-actin) in [8]: the GFP-fusion kinase co-localized with the intracellular compartments
